Source: the supplement of paper PMC10307832

Assays:
Assay in all cases: relative viability (nuclei count vs DMSO), 5 days (fraction); higher = more cells survive
Motesanib + Vorinostat = compound: CC1(C)CNc2cc(NC(=O)c3cccnc3NCc3ccncc3)ccc21 [Motesanib] + O=C(CCCCCCC(=O)Nc1ccccc1)NO [Vorinostat] (partner 1 µM)
Summary of the method: (§1)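 Lung cancer cell lines in 1536-well plates got either a single drug or a fixed anchor-drug dose together with five library-drug doses (not always all listed) in √10 steps, by pin tool, on the day after seeding. Nuclei were counted after 5 days, and relative viability is the treated-to-vehicle ratio of nuclei counts. Values are medians of duplicate plates.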

Motesanib + Foretinib = compound: CC1(C)CNc2cc(NC(=O)c3cccnc3NCc3ccncc3)ccc21 [Motesanib] + COc1cc2c(Oc3ccc(NC(=O)C4(C(=O)Nc5ccc(F)cc5)CC4)cc3F)ccnc2cc1OCCCN1CCOCC1 [Foretinib] (partner 0.25 µM)
Summary of the method: as §1

[1] = compound: C[C@@]1(C(=O)Nc2ccc(F)nc2)CCCN1c1nc(Nc2cc(C3CC3)n[nH]2)c2cccn2n1 + CC(=O)Nc1cccc(-n2c(=O)n(C3CC3)c(=O)c3c(Nc4ccc(I)cc4F)n(C)c(=O)c(C)c32)c1 [Trametinib] (partner 0.02 µM)
Summary of the method: as §1

[2] = compound: C[C@@]1(C(=O)Nc2ccc(F)nc2)CCCN1c1nc(Nc2cc(C3CC3)n[nH]2)c2cccn2n1 + CC1(C)CCC(c2ccc(Cl)cc2)=C(CN2CCN(c3ccc(C(=O)NS(=O)(=O)c4ccc(N[C@H](CCN5CCOCC5)CSc5ccccc5)c(S(=O)(=O)C(F)(F)F)c4)cc3)CC2)C1 [Navitoclax] (partner 0.5 µM)
Summary of the method: as §1

Cell Line	relative viability (Motesanib + Vorinostat; first compound 0.01 µM)	relative viability (Motesanib + Vorinostat; first compound 0.03162 µM)	relative viability (Motesanib + Vorinostat; first compound 0.1 µM)	relative viability (Motesanib + Vorinostat; first compound 0.3162 µM)	relative viability (Motesanib + Vorinostat; first compound 1 µM)	relative viability (Motesanib + Foretinib; first compound 0.01 µM)	relative viability (Motesanib + Foretinib; first compound 0.03162 µM)	relative viability (Motesanib + Foretinib; first compound 0.1 µM)	relative viability (Motesanib + Foretinib; first compound 0.3162 µM)	relative viability (Motesanib + Foretinib; first compound 1 µM)	relative viability ([1]; first compound 0.04 µM)	relative viability ([1]; first compound 0.1265 µM)	relative viability ([1]; first compound 0.4 µM)	relative viability ([1]; first compound 1.265 µM)	relative viability ([2]; first compound 0.04 µM)	relative viability ([2]; first compound 0.1265 µM)	relative viability ([2]; first compound 0.4 µM)	relative viability ([2]; first compound 1.265 µM)
HCC-827	0.759	0.945	0.881	0.666	0.885	0.963	1.09	1.02	1.08	1.03	0.518	0.499	0.45	0.557	1.02	1	1.01	1
HOP-62	0.668	0.677	0.599	0.972	0.799	1.17	1.1	1.02	1.1	1.21	0.406	0.303	0.313	0.397	1.12	0.887	0.826	1.03
IA-LM	0.91	0.936	0.953	0.935	0.767	1.12	1.1	1.23	1.07	1.19	–	–	–	–	0.983	0.904	0.746	0.593
LC-2-ad	0.694	0.694	0.811	0.808	0.709	0.875	0.988	0.893	0.984	1.02	0.848	0.749	0.648	0.735	0.379	0.373	0.296	0.143
LCLC-97TM1	0.796	0.884	0.495	0.858	0.575	0.948	0.968	0.976	0.919	0.979	0.232	0.0949	0.0995	0.13	0.117	0.32	0.196	0.324
LCLC-103H	0.756	0.843	0.815	1.02	0.762	0.809	0.707	0.844	0.867	0.937	0.668	0.613	0.62	0.69	–	–	–	–
LK-2	0.271	0.311	0.386	0.433	0.486	1.21	1.08	–	1.27	1.31	0.426	1.15	0.416	0.495	–	0.843	0.368	0.494
LOU-NH91	0.918	0.932	0.993	1	0.992	0.97	0.929	0.91	0.948	1.02	0.737	0.845	0.709	0.755	0.706	0.77	0.61	0.686
LU99A	0.473	0.593	0.505	0.645	0.484	0.795	0.813	0.734	0.898	0.89	0.411	0.352	0.399	0.504	0.652	0.71	0.491	0.574
